Experimental data published in patent US6596772B1, “Phosphate mimics and methods of treatment using phosphatase inhibitors” (Sugen, Inc., priority 1999, dated 2003).

Each compound was assayed against T1, PTP SHP2 (Homo sapiens, UniProt Q06124) (assay: PTP IC50 assay, pNPP or FDP as substrate). Details: PTP IC50 SHP2, pNPP or FDP as substrate, 25° C.
T1 construct: The catalytic domain was amplified using the following oligonucleotides; made in house; host or cells: Sf-9 insect cells (pFastBac-G2T)
T1 sequence (Q06124 247-517 limits assumed): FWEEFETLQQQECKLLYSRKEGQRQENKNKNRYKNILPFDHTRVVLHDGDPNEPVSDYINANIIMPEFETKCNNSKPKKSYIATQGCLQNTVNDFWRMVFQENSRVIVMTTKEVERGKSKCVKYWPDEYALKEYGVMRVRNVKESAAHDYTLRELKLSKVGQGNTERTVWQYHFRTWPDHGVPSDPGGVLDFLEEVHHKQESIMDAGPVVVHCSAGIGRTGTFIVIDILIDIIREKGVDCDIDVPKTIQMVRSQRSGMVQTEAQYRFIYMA
Assay type: biochemical
Description: The following in vitro assay procedure is preferred to determine the level of activity and effect of the different compounds of the present invention on one or more of the PTPs. Similar assays can be designed along the same lines for any PTP using techniques well known in the art.
The catalytic assays described herein are performed in a 96-well format. The general procedure begins with the determination of PTP optimal pH using a three-component buffer system that minimizes ionic strength variations across a wide range of buffer pH. Next, the Michaelis-Menten constant, or Km, is determined for each specific substrate-PTP system. This Km value is subsequently used as the substrate reaction concentration for compound screening. Finally, the test PTP is exposed to varying concentrations of compound for fifteen minutes and allowed to react with substrate for ten minutes. The results are plotted as percent inhibition versus compound concentration and the IC50 interpolated from the plot.
All assays were performed using pNPP or FDP as substrate. The optimum pH was determined for each PTP used.
PTPase activity was assayed at 25° C. in a 100-μl reaction mixture containing an appropriate concentration of pNPP or FDP as substrate. The reaction was initiated by addition of the PTP and quenched after 10 min by addition of 50 μl of IN NaOH. The non-enzymatic hydrolysis of the substrate was corrected by measuring the control without the addition of the enzyme. The amount of p-nitrophenol produced was determined from the absorbance at 410 nm. To determine the kinetic parameter, Km, the initial velocities were measured at various substrate concentrations and the data were fitted to the Michaelis equation where velocity=(Vmax*[S])/(Km+[S]), and [S]=substrate reaction concentration.
The effect of the compounds on PTP was evaluated at 25° C. using pNPP or FDP as substrate. PTP was pre-incubated for fifteen minutes with various concentrations of compound. Substrate was then added at a fixed concentration (usually equal to the Km previously calculated). After 10 minutes, NaOH was added to stop the reaction. The hydrolysis of pNPP was followed at 410 nm on the Biotek Powerwave 200 microplate scanning spectrophotometer. The percent inhibition was calculated as follows: Percent Inhibition=[(control signal−compound signal)/control signal] ×100%. The IC50 was then determined by interpolation of a percent inhibition versus compound concentration plot.
Plasmids designed for bacterial GST-PTP fusion protein expression were derived by insertion of PCR-generated human PTP fragments into pGEX vectors (Pharmacia Biotech). Several of these constructs were then used to subclone phosphatases into pFastBac-1for expression in Sf-9 insect cells. Oligonucleotides used for the initial amplification of PTP genes are shown below. The cDNAs were prepared using the Gilbo BRL superscript preamplification system on RNAs purchased from Clontech.
SHP-2 cDNA was used as described earlier (Vogel W., et al.,1993, Science, 259:1611-4). The catalytic domain was amplified using the following oligonucleotides 5′oligo: 5′-[…]-3′ (SEQ ID NO: 2) 3′oligo: 5′-[…]-3′ (SEQ ID NO: 3) and subsequently subcloned into BamH1-Xba-1 sites. It was then ligated into pfas Bac-G2T BamH1-Xba-1 sites.

| Compound | IC50 [µM] |
| --- | --- |
| NC(=O)c1cc(Oc2ccc(S(=O)(=O)C(F)(F)F)cc2[N+](=O)[O-])cc(Oc2ccc(S(=O)(=O)C(F)(F)F)cc2[N+](=O)[O-])c1 [Example 30, 3,5-Bis-(2-nitro-4-trifluoromethanesulfonyl-phenoxy)-benzamide] | 52.8 |

Same assay, conditions: comparison of R groups; read-out: IC50 SHP2

| Compound | IC50 [µM] |
| --- | --- |
| CS(=O)(=O)Nc1ccc(Oc2ccc(Oc3ccc(NS(C)(=O)=O)cc3)cc2)cc1 [CH3SO2NH—] | 33.6 |

Same assay, conditions: pNPP or FDP as substrate, 25° C.; read-out: PTP IC50 SHP2

| Compound | IC50 [µM] |
| --- | --- |
| 1-(4-Aminophenoxy)-4-trifluoromethylsulfonamidophenoxy benzene [Example 72] | 17 |
| O=[N+]([O-])c1cc(S(=O)(=O)C(F)(F)F)ccc1OC1CCC(Oc2ccc(S(=O)(=O)C(F)(F)F)cc2[N+](=O)[O-])C1 (mixture of isomers) [Example 12, 1,3-Bis-(2-nitro-4-trifluoromethanesulfonyl-phenoxy)-cyclopentane] | 79.8 |
| O=[N+]([O-])c1cc(S(=O)(=O)C(F)(F)F)ccc1SSc1ccc(S(=O)(=O)C(F)(F)F)cc1[N+](=O)[O-] [Example 8, Bis-(2-nitro-4-trifluoromethylsulfonylphenyl) disulfide] | 37 |
| COC(=O)c1cc(Oc2ccc(S(=O)(=O)C(F)(F)F)cc2)cc(Oc2ccc(S(=O)(=O)C(F)(F)F)cc2)c1 [Example 9, 3,5-Bis-(4-trifluoromethanesulfonyl-phenoxy)-benzoic acid methyl ester] | > 100 |
| COC(=O)Cc1cc(Oc2ccc(S(=O)(=O)C(F)(F)F)cc2[N+](=O)[O-])cc(Oc2ccc(S(=O)(=O)C(F)(F)F)cc2[N+](=O)[O-])c1 [Example 10, [3,5-Bis-(2-nitro-4-trifluoromethanesulfonyl-phenoxy)-phenyl]-acetic acid methyl ester] | > 100 |
| COC(=O)c1cc(Oc2ccc(S(=O)(=O)C(F)(F)F)cc2[N+](=O)[O-])cc(Oc2ccc(S(=O)(=O)C(F)(F)F)cc2[N+](=O)[O-])c1 [Example 11, 3,5-Bis-(2-nitro-4-trifluoromethanesulfonyl-phenoxy)-benzoic acid methyl ester] | > 100 |
| COC(=O)c1c(Oc2ccc(S(=O)(=O)C(F)(F)F)cc2[N+](=O)[O-])cc(C)cc1Oc1ccc(S(=O)(=O)C(F)(F)F)cc1[N+](=O)[O-] [Example 13, 4-Methyl-2,6-bis-(2-nitro-4-trifluoromethanesulfonyl-phenoxy)-benzoic acid methyl ester] | > 100 |
| COC(=O)c1ccc(OCCOc2ccc(S(=O)(=O)C(F)(F)F)cc2[N+](=O)[O-])cc1 [Example 14, 4-[2-(2-nitro-4-trifluoromethanesulfonyl-phenoxy)-ethoxy]-benzoic acid methyl ester] | > 100 |
| O=C(O)c1ccc(Oc2cccc(Oc3ccc(S(=O)(=O)C(F)(F)F)cc3[N+](=O)[O-])c2)cc1 [Example 15, 4-[3-(2-Nitro-4-trifluoromethanesulfonyl-phenoxy)-phenoxy]-benzoic acid] | 10.7 |
| COC(=O)c1cc(Oc2ccc(S(=O)(=O)C(F)(F)F)cc2[N+](=O)[O-])n(-c2cc(C(F)(F)F)cc(C(F)(F)F)c2)n1 [Example 16, 1-(3,5-Bis-trifluoromethyl-phenyl)-5-(2-nitro-4-trifluoromethanesulfonyl-phenoxy)-1H-pyrazole-3-carboxylic acid methyl ester] | > 100 |
| CCOC(=O)COc1ccc(S(=O)(=O)c2ccc(Oc3ccc(S(=O)(=O)C(F)(F)F)cc3[N+](=O)[O-])cc2)cc1 [Example 17, {4-[4-(2-Nitro-4-trifluoromethanesulfonyl-phenoxy)-benzenesulfonyl]-phenoxy}-acetic acid ethyl ester] | > 100 |
| O=C(O)c1ccc(Oc2cccc(Oc3ccc(S(=O)(=O)C(F)(F)F)cc3)c2)cc1 [Example 18, 4-[3-(4-Trifluoromethanesulfonyl-phenoxy)-phenoxy]-benzoic acid] | 18.4 |
| CCOC(=O)COc1ccc(S(=O)(=O)c2ccc(Oc3ccc(S(=O)(=O)C(F)(F)F)cc3)cc2)cc1 [Example 19, {4-[4-(4-trifluoromethanesulfonyl-phenoxy)-benzenesulfonyl]-phenoxy}-acetic acid ethyl ester] | > 100 |
| O=C(Cc1ccccc1CC(=O)Nc1cccc(S(=O)(=O)C(F)(F)F)c1)Nc1cccc(S(=O)(=O)C(F)(F)F)c1 [Example 20, N-(3-Trifluoromethanesulfonyl-phenyl)-2-{2-[(3-trifluoromethanesulfonyl-phenylcarbamoyl)-methyl]-phenyl}-acetamide] | 54.3 |
| O=C(Cc1cccc(CC(=O)Nc2cccc(S(=O)(=O)C(F)(F)F)c2)c1)Nc1cccc(S(=O)(=O)C(F)(F)F)c1 [Example 21, N-(3-Trifluoromethanesulfonyl-phenyl)-2-{3-[(3-trifluoromethanesulfonyl-phenylcarbamoyl)-methyl]-phenyl}-acetamide] | 56.8 |
| O=C(Cc1ccc(CC(=O)Nc2cccc(S(=O)(=O)C(F)(F)F)c2)cc1)Nc1cccc(S(=O)(=O)C(F)(F)F)c1 [Example 22, N-(3-Trifluoromethanesulfonyl-phenyl)-2-{4-[(3-trifluoromethanesulfonyl-phenylcarbamoyl)-methyl]-phenyl}-acetamide] | 16.3 |
| O=[N+]([O-])c1cc(S(=O)(=O)C(F)(F)F)ccc1Oc1cc(CN2CCOCC2)c(Oc2ccc(S(=O)(=O)C(F)(F)F)cc2[N+](=O)[O-])cc1CN1CCOCC1 [Example 23, 3,6-Bis-(morpholin-4-ylmethyl)-2,5-bis-(2-nitro-4-trifluoromethanesulfonyl-phenoxy)-benzene] | 27.6 |
| CN(C)CC(COc1ccc(S(=O)(=O)C(F)(F)F)cc1[N+](=O)[O-])Oc1ccc(S(=O)(=O)C(F)(F)F)cc1[N+](=O)[O-] (stereo not drawn) [Example 24, [2,3-Bis-(2-nitro-4-trifluoromethanesulfonyl-phenoxy)-propyl]-dimethyl-amine] | > 100 |
| CCNc1ccc(S(=O)(=O)C(F)(F)F)cc1NC(=O)Cc1ccc(S(C)(=O)=O)cc1 [Example 25, N-(2-Ethylamino-5-trifluoromethanesulfonyl-phenyl)-2-(4-methanesulfonyl-phenyl)-acetamide] | > 100 |
| CCOC(=O)c1cc(Oc2ccc(S(=O)(=O)C(F)(F)F)cc2[N+](=O)[O-])c(C(=O)OCC)cc1O [Example 26, 2-Hydroxy-5-(2-nitro-4-trifluoromethanesulfonyl-phenoxy)-terephthalic acid diethyl ester] | > 100 |
| O=C(O)Cc1ccccc1CC(=O)Nc1cccc(S(=O)(=O)C(F)(F)F)c1 [Example 27, {2-[(3-Trifluoromethanesulfonyl-phenylcarbamoyl)-methyl]-phenyl}-acetic acid] | > 100 |
| O=C(O)Cc1cccc(CC(=O)Nc2cccc(S(=O)(=O)C(F)(F)F)c2)c1 [Example 28, {3-[(3-Trifluoromethanesulfonyl-phenylcarbamoyl)-methyl]-phenyl}-acetic acid] | 17.9 |
| O=C(O)Cc1ccc(CC(=O)Nc2cccc(S(=O)(=O)C(F)(F)F)c2)cc1 [Example 29, {4-[(3-Trifluoromethanesulfonyl-phenylcarbamoyl)-methyl]-phenyl}-acetic acid] | 37 |
| O=C(O)c1cc(Oc2ccc(S(=O)(=O)C(F)(F)F)cc2)cc(Oc2ccc(S(=O)(=O)C(F)(F)F)cc2)c1 [Example 31, 3,5-Bis-(4-trifluoromethanesulfonyl-phenoxy)-benzoic acid] | 5.7 |
| O=S(=O)(Nc1ccc(Oc2ccc(NS(=O)(=O)C(F)(F)F)cc2)cc1)C(F)(F)F [Example 73, Bis(4-trifluoromethylsulfonamidophenyl) ether] | > 100 |
